Reference: patent EP4596556A1, “SPIROCYCLIC DERIVATIVE-CONTAINING SALT OR CRYSTAL FORM, AND PREPARATION METHOD THEREFOR AND USE THEREOF” (Shujing Biopharma Co., Ltd, priority 2022, dated 2024)
Values after ≈ are worked out from the molar mass of the structure shown. Structures can show the parent of a compound that is named as a salt. Where two headings read alike, the source gives them in different places.

Columns and labels:
[1] = target: T1, TAAR1 receptor (Homo sapiens, UniProt Q96RJ0); experiment: TAAR1 receptor cAMP agonist test; type: cell-based
T1 sequence (Q96RJ0 1-339): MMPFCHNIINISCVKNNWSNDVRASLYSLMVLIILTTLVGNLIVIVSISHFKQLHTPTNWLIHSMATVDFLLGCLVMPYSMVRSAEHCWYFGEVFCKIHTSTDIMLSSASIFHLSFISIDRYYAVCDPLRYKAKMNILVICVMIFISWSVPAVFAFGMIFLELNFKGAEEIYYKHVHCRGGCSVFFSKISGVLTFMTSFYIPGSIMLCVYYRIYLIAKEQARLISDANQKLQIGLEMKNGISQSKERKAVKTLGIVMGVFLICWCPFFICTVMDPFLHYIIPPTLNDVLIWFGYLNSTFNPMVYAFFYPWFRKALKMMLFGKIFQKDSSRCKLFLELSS
From the text: The cAMP detection kit was purchased from Cisbio; the […] cell line stably expressing TAAR1 receptor was constructed by Shanghai Shujing Biotechnology Co., Ltd.; IBMX was purchased from Sigma; Phenethylamine (PEA); ProxiPlate-384 well plate was purchased from PerkinElmer; HBSS was purchased from Thermo Fisher Scientific Company.
Activation rate (activity%)=(negative control ratio-compound ratio)/(negative control ratio-positive control ratio)×100%.
The EC50 values of the compounds were calculated using the four-parameter fitting model log(agonist)vs.response--Variable slope(four parameters) in GraphPad Prism.

[2] = target: T2, 5-HT1A receptor (Homo sapiens, UniProt P08908); experiment: 5-HT1A receptor cAMP agonist test; type: cell-based
T2 sequence (P08908 1-422): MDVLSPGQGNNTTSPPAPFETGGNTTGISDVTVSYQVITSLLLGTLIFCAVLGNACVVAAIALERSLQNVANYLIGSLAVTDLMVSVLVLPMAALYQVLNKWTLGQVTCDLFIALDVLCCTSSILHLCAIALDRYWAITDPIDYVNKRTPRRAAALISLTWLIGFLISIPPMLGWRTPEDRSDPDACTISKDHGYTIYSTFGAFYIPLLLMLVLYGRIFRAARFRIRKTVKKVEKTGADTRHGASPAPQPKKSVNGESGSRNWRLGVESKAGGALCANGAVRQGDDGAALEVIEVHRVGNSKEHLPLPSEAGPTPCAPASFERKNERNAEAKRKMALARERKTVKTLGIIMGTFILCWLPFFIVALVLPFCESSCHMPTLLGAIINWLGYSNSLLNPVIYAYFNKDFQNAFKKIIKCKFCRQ
From the text: The cAMP detection kit was purchased from Cisbio; the HEK293 cell line stably expressing 5-HT1A receptor was constructed by Shanghai Shujing Biotechnology Co., Ltd.; Serotonin, Forskolin and IBMX were purchased from Sigma; ProxiPlate-384-well plates was purchased from PerkinElmer; HBSS was purchased from Thermo Fisher Scientific.
Activation rate (activity%)=(negative control ratio-compound ratio)/(negative control ratio-positive control ratio)×100%
The EC50 values of the compounds were calculated using the four-parameter fitting model log(agonist)vs. response--Variable slope(four parameters) in Graph Pad Prism.

[3] = tested on: high spontaneous activity induced by PCP in mice; experiment: Inhibition of high spontaneous activity induced by PCP in mice; type: in vivo; conditions: p.o., PCP 5 mg/kg i.p., male C57Bl/6J mice
Description: Compounds to be tested: compounds of the examples of the present application, self-made.
That is, animals were transferred from the feeding room to the laboratory, and moved freely in the cage.
(§1) Drug preparation: taking the compound to be tested, adding pure water and performing ultrasonication.
T0 min intraperitoneal injection of modeling drug: 30 minutes after compound administration, the mice were taken out, and administered with PCP (5 mg/kg) by intraperitoneal injection. The blank control group was injected with pure water. After the administration of PCP, the animals were immediately put back into the test box, and the test was continued for 60 minutes.
(§2) The activities of these animals (movement distance in the test box) were automatically recorded by the camera, and analyzed with ANY MAZE software, and the ED50 values were calculated.

[4] = tested on: high spontaneous activity induced by MK-801 in mice; experiment: Inhibition of high spontaneous activity induced by MK-801 in mice; type: in vivo; conditions: p.o., MK-801 0.3 mg/kg i.p., male C57Bl/6J mice
Description: Compounds to be tested: compounds in the examples of the present application, self-made.
3.2.1 Grouping of animals: before the start of the experiment, animals were randomly grouped according to body weight.
3.2.2 Animal adaptation: before the experiment, the mice were first adapted to the experimental environment for at least 1 hour. That is, the animals were transferred from the breeding room to the laboratory and moved freely in the cage.
as §1
The blank control group was injected with normal saline.
as §2

[5] = Equilibrium solubility in water for 24 hours; type: physicochemical
Description: Investigating the equilibrium solubility of each hydrochloride crystal form of Compound A in water for 24 hours.
Excess samples of hydrochloride crystal form I and hydrochloride crystal form II of Compound A were weighed and placed in different 10 mL centrifuge tubes, and 1 mL of deionized water was added, sealed with a parafilm, shaking at a constant temperature of 37°C and 150 rpm for 24 hours; after passing through a 0.45 µm organic filter, the sample was diluted and injected for HPLC analysis.

[6] = Mouse pharmacokinetic experiment, oral gavage; type: in vivo; conditions: ICR mice, 5 mg/kg, plasma
Description: The mice were administered by oral gavage, and the plasma concentrations of each hydrochloride crystal form of Compound A in mice were determined, the PK parameters were calculated, and the pharmacokinetics were evaluated.
• (1) Experimental samples: hydrochloride crystal forms I, II, and III of Compound A of the present application, self-made. • (2) Experimental animals: ICR mice, SPF grade, male, Shanghai SLAC Laboratory Animal Co., Ltd.
The compound was administered via oral gavage at a dosage of 5 mg/kg. ICR mice were stratified by body weight and randomly divided into groups of 3 mice each, and fasted overnight before the experiment. Administering according to the prescribed dosage and schedule, and […] of blood was taken from the mandibular vein or saphenous vein of mice by cross sampling at fixed time points to a sample tube containing anticoagulant sodium heparin and placed in wet ice, centrifuging at 4000 r · min^-1 for 10 minutes to separate the plasma for LC-MS analysis.
The measured blood drug concentration-time data was substituted into the Winnonlin 7.0 program to calculate the main pharmacokinetic parameters. Table 3.3: Results of mouse pharmacokinetic experiments

[7] = Solid (chemical) stability under high temperature, high humidity and light; type: physicochemical
Description: Investigating the chemical stability of each hydrochloride crystal form of Compound A under high temperature, high humidity, and light conditions.
Appropriate amounts of hydrochloride crystal form I and hydrochloride crystal form II of Compound A were weighed and placed in weighing dishes respectively; three samples for each salt were prepared, and placed respectively in a oven at 60°C, a drying dish with RH 92.5%, and a stability test chamber with an illumination condition of 5000 1x for 85 days. After mixing all samples evenly at day 0, day 10, day 20, and day 85, samples were taken and dissolved in acetonitrile and water, and the content and impurity changes were detected by HPLC-related substance detection method.

[8] = Solution stability at different pH (HPLC content, 0-24 hours); type: physicochemical; conditions: after 24 hours at pH 1.0, 3.0, 5.0 and 7.0
Description: Investigating the solution stability of each hydrochloride crystal form of Compound A.
Solutions with pH of 1.0, 3.0, 5.0, and 7.0 solutions were prepared using hydrochloric acid, phosphoric acid, and sodium hydroxide. Appropriate amounts of hydrochloride crystal form I and hydrochloride crystal form II of Compound A were accurately weighed respectively and added to corresponding 20 mL volumetric flasks and labeled, dissolving in media with different pH, passing through a 0.45 µ m organic filters for HPLC analysis. The content changes of the samples from 0-24 hours were monitor, and the results were calculated.

[9] = Mus musculus, half effective dose

CNC[C@@H]1OCC2(CC2)c2sccc21 (single isomer, unassigned) [Compound A]
EC50 ([1]; cAMP agonist assay, cell line stably expressing TAAR1 receptor): 1.55 µM
TAAR1 Max Act% ([1]; maximum activation rate relative to PEA positive control): 95.5%
EC50 ([2]; cAMP agonist assay, HEK293 cell line stably expressing 5-HT1A receptor, Forskolin): 1.04 µM
5-HT1A Max Act% ([2]; maximum activation rate relative to Serotonin positive control): 95.2%
ED50 [3, 9]: 0.45 mg/kg
MED ([3]; minimum effective dose): 0.1 mg/kg
ED50 [4, 9]: 4.48 mg/kg
MED ([4]; minimum effective dose): 10 mg/kg

CNC[C@@H]1OCC2(CC2)c2sccc21 [(R)-1-(4'H,6'H-spiro[cyclopropane-1,7'-thieno[3,2-c]pyran]-4'-yl)-N-methylmethyl-amine]
solubility at 24 h ([5]; deionized water, 37 °C, water, thermodynamic from solid): 155 mg/mL (≈ 740 mM)
AUC(inf) [6]: 1.4526 µg·h/mL
Cmax [6]: 0.4803 µg/mL
Tmax [6]: 0.5 h
t1/2 [6]: 3.6 h
AUC(0-inf) ([6]; male, ICR, mouse, po): 1.93 µg·h/mL
half-life ([6]; male, ICR, mouse, po): 2.8 h
Cmax ([6]; male, ICR, mouse, po, read-out: Cmax): 0.606 µg/mL
Tmax ([6]; male, mouse, read-out: Tmax): 0.5 h

CNC[C@@H]1OCC2(CC2)c2sccc21 [Hydrochloride crystal form I of Compound A] [(R)-1-(4'H,6'H-spiro[cyclopropane-1,7'-thieno[3,2-c]pyran]-4'-yl)-N-methylmethyl-amine]
Increase of total impurities (%) day 10 ([7]; High humidity of RH 92.5%): <0.1%
Increase of total impurities (%) day 20 ([7]; High humidity of RH 92.5%): <0.1%
Increase of total impurities (%) day 85 ([7]; High humidity of RH 92.5%): 0.199%
Increase of total impurities (%) day 10 ([7]; High temperature of 60°C): <0.1%
Increase of total impurities (%) day 20 ([7]; High temperature of 60°C): <0.1%
Increase of total impurities (%) day 85 ([7]; High temperature of 60°C): 0.182%
Increase of total impurities (%) day 10 ([7]; Illumination of 5000 lx): <0.1%
Increase of total impurities (%) day 20 ([7]; Illumination of 5000 lx): <0.1%
Increase of total impurities (%) day 85 ([7]; Illumination of 5000 lx): <0.1%
solution stability [8]: good stability

CNC[C@@H]1OCC2(CC2)c2sccc21 [Hydrochloride crystal form II of Compound A] [(R)-1-(4'H,6'H-spiro[cyclopropane-1,7'-thieno[3,2-c]pyran]-4'-yl)-N-methylmethyl-amine]
Solubility ([5]; equilibrium solubility in deionized water, 37°C): 162.30 mg/mL
Increase of total impurities (%) day 10 ([7]; High humidity of RH 92.5%): <0.1%
Increase of total impurities (%) day 20 ([7]; High humidity of RH 92.5%): <0.1%
Increase of total impurities (%) day 85 ([7]; High humidity of RH 92.5%): 0.145%
Increase of total impurities (%) day 10 ([7]; High temperature of 60°C): <0.1%
Increase of total impurities (%) day 20 ([7]; High temperature of 60°C): <0.1%
Increase of total impurities (%) day 85 ([7]; High temperature of 60°C): 0.133%
Increase of total impurities (%) day 10 ([7]; Illumination of 5000 lx): <0.1%
Increase of total impurities (%) day 20 ([7]; Illumination of 5000 lx): <0.1%
Increase of total impurities (%) day 85 ([7]; Illumination of 5000 lx): <0.1%
AUC(inf) [6]: 1.5466 µg·h/mL
Cmax [6]: 0.4887 µg/mL
Tmax [6]: 0.5 h
t1/2 [6]: 2.2 h
solution stability [8]: good stability
